“Also recorded” adds a separate entry of the source. Like-named read-outs stand apart in the source and are kept apart here.

The nature of series [1]: Excitation and emission values of the fluorescent dyes in solvent. Format: physicochemical. The conditions noted are these: for Emission / Excitation: measured in methanol. As to the method:
Some exemplary fluorescent dyes according to the invention together with values for excitation and emission are included in table 1. […] The excitation and emission values of the fluorescent dyes were measured in methanol, which simulates a protein-environment, thus yielding a shift of the emission to shorter wavelengths. For comparison, excitation and emission values for compound 10 were also measured in HEPES buffer (i.e. under initial, aqueous assay conditions). In this aqueous environment, the excitation is 620 nm and the emission is 688 nm compared to an emission at 662 nm in methanol.
(§1) The fluorescent dye will bind to any lipid-binding site of the protein, and the resulting increase in the hydrophobicity surrounding of the dye will result in an increase in the intensity of the fluorescence and a shift in the emission to a shorter wavelength. The emission-wavelength of a compound according to formula I in a hydrophobic surrounding can be determined in a non-aqueous solution such as methanol.

Series [2] has as its target T1, peroxisomal matrix protein (SCP2) (Homo sapiens, UniProt P22307).
T1 sequence (P22307 1-143 isoform P22307-2): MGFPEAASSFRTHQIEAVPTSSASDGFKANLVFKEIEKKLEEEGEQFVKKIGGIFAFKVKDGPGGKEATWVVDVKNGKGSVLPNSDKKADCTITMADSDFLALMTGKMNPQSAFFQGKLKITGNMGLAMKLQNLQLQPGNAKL
Briefly: Titration of fluorescent dye with peroxisomal matrix protein (SCP2). Format: binding. To be noted: dye 250 nM, FIG. 2b.
Excerpt: (§2) In a preferred embodiment of the invention, the assay for identifying lipid binding sites of proteins using the compounds according to formula I as defined above, comprises the steps of • a) dissolving a compound according to formula I as defined above in an aqueous solvent, • b) adding the protein to be tested for containing a lipid binding site, preferably in various concentrations, • c) measuring the intensity of fluorescence emission at the wavelength of maximal emission of the fluorescent dye.
as §1
(§3) For determining the submaximal concentration of dye binding to the protein, the latter was titrated until no further fluorescence increase at 620 nm could be detected.

In series [3] the target is bovine serum albumin (BSA) (Bos taurus, UniProt P02769). Briefly: Titration of fluorescent dye with bovine serum albumin (BSA). The conditions noted are these: for wavelength of maximal emission intensity: FIG. 1a/1b. Type of series: binding.
Sequence of bovine serum albumin (BSA) (P02769 25-607): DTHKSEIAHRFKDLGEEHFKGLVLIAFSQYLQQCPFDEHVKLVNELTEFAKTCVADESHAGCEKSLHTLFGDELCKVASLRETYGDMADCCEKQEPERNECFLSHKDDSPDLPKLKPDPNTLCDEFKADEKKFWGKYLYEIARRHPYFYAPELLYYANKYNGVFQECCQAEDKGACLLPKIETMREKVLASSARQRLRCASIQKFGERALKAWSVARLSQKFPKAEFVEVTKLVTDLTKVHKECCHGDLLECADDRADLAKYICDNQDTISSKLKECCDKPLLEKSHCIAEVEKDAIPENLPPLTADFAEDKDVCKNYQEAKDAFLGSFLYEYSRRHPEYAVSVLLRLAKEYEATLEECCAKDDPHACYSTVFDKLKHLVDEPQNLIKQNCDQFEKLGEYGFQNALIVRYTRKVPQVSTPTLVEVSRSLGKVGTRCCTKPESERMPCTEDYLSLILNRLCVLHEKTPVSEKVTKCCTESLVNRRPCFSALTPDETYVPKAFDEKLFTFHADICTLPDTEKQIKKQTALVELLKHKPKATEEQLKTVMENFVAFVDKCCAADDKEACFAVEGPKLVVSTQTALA
Excerpt: as §2, §1, §3

The nature of a further series: Water solubility. Format: physicochemical.
The next series concerns the target cytochrome c (Homo sapiens, UniProt P99999). The conditions noted are these: whole cells; cited from earlier work.
The next series addresses BSA (Bos taurus, UniProt P02769). As to the method: Depending on the strength of the binding of the ligand to the lipid binding site of the protein, the ligand releases the fluorescent dye from the hydrophobic lipid binding site. This can be measured by a decrease of the intensity of fluorescence at the emission wavelength of the dye in hydrophobic surrounding, as imitated by dissolving the dye in methanol.
Increasing concentrations of lipid or drug were added to replace the dye in a dose-dependent fashion. Fluorescence values at 620 nm were corrected for basal fluorescence at 620 nm prior to protein addition as well as for dilution effects from adding increasing ligand concentrations. The starting fluorescence value minus the value at a given ligand concentration was plotted as % replacement.

Sequence of BSA (P02769 25-607): as above
Sequence of cytochrome c (P99999 whole entry, species assumed): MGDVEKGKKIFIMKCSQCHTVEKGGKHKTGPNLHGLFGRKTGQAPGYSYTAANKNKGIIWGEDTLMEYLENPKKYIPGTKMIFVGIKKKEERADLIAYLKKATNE

In series [1], `CCN(CC)c1ccc2nc3c4cc(O)ccc4c(=O)cc-3oc2c1` [compound 1] showed an Emission of 629 nm and an Excitation of 540 nm.
With `CCN(CC)c1ccc2nc3c4cc(O)ccc4c(=O)c(Br)c-3oc2c1` [compound 2], in series [1], the Emission came out at 640 nm and the Excitation is given as 550 nm.
On the same counts, the results for `CCN(CC)c1ccc2nc3c4cc(O)ccc4c(=O)c(Cl)c-3oc2c1` [compound 3] are 643 nm and 549 nm.
`CCN(CC)c1ccc2nc3c4ccc(O)cc4c(=O)c(Br)c-3oc2c1` [compound 4, 6-Bromo-9-diethylamino-3-hydroxy-benzo[a]phenoxazin-5-one]: in series [1], the Emission is 650 nm and the Excitation was determined as 552 nm.
In series [1], `CCN(CC)c1ccc2nc3c4ccc(O)c(Br)c4c(=O)c(Br)c-3oc2c1` [compound 5, 4,6-Dibromo-9-diethylamino-3-hydroxy-benzo[a]phenoxazin-5-one] showed an Emission of 653 nm and an Excitation of 562 nm.
Regarding `CCN(CC)c1cc(C)c2nc3c4ccc(O)cc4c(=O)cc-3sc2c1` [compound 6, 9-Diethylamino-3-hydroxy-11-methyl-benzo[a]phenothiazin-5-one], in series [1], the Emission was found to be 665 nm and the Excitation was 580 nm.
With `CCCCOc1ccc2c3nc4c(C)cc(N(CC)CC)cc4sc-3cc(=O)c2c1` [compound 7], in series [1], the “Quantum Yield” value is given as 0.29, the Emission was found to be 664 nm and the Excitation was found to be 585 nm.
For `CCCCOc1ccc2c3nc4ccc(N(CC)CC)cc4oc-3c(Br)c(=O)c2c1` [compound 8], in series [1], the “Quantum Yield” value amounted to 0.35, the Emission is 650 nm and the Excitation was 556 nm.
For the compound `CCN(CC)c1ccc2nc3c4cc(OCCCC(=O)O)ccc4c(=O)cc-3oc2c1` [compound 11, nile red butyric acid], the “binding of SCP2 to dye compared with BSA and MAO B” value in series [2] is recorded as “weakest”. Also, the “change of fluorescence on titration with BSA” value in series [3] (FIG. 1a (dye 0.25 μM) / FIG. 1b (dye 3 μM)) is “shift in the emission to a shorter wavelength and an increase in the intensity of the fluorescence”. For the same compound, the “binding of BSA to dye compared with SCP2 and MAO B” value in series [3] (dye 250 nM, FIG. 2b) was “strongest binding”. The “wavelength of maximal emission intensity” value in series [3] (in the absence of BSA) stood at 657 nm. Further, the “wavelength of maximal emission intensity” value in series [3] (in the presence of BSA) stood at 620 nm. Moreover, in “Water solubility”, the water solubility result was “increased water solubility”. In series [1], this compound showed an Emission of 631 nm and an Excitation of 544 nm.
Regarding `CCN(CC)c1ccc2nc3c4ccccc4c(=O)cc-3oc2c1` [nile red], the “quenching of fluorescence by cytochrome c” value on cytochrome c is “strong quenching effect”.
`N[C@@H](Cc1c[nH]c2ccccc12)C(=O)O` [tryptophan]: the “release of dye from BSA” value at BSA (2BrNR 250 nM, 5.54 μM BSA, 282.62 μM ligand, FIG. 5a) is on record as “not able to release all the dye from BSA”; at BSA (NRBA, 2 μM BSA, 1 mM ligand, FIG. 5b), “not able to release all the dye from BSA”. Moreover, the “lipid binding sites of albumin occupied / dye molecules replaced” value at BSA (replacement of NRBA from 2 μM BSA, FIG. 4/5b) is given as “only replaced one molecule of the dye; also recorded: occupation of one binding site”.

Values taken from patent US20080038840A1, “Fluorescent Method And Compounds To Monitor Protein-Lipid Binding” (EUROPAEISCHES LABORATORIUM FUER MOLEKULARBIOLOGIE, priority 2004, published 2008).
